The source of these data is patent publication US20250215029A1 (Recludix Pharma, Inc., priority 2022, published 2025).

Experiment [1] addresses T1, Recombinant STAT3 protein (STAT3 (G127-I722)) (Homo sapiens, UniProt P40763).
T1 construct: Recombinant STAT3 protein (STAT3 (G127-I722))
The experiment can be described thus: STAT3 Fluorescence Polarization (FP) Assay. It is filed as binding. Particulars: probe 5-FAM-GpYLPQTV-NH2 2 nM, 45-minute incubation. A digest of the protocol:
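Compounds in serial dilution receive a premix of STAT3 (G127-I722, 25 nM) and fluorescent phosphotyrosine peptide 5-FAM-GpYLPQTV-NH2 (2 nM) at pH 7.4. After 45 min at room temperature, FP is measured and IC50 derived by nonlinear regression.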

The target in experiment [2] is T2, Recombinant STAT6 protein (STAT6 (W123-T658)) (Homo sapiens, UniProt P42226).
T2 construct: Recombinant STAT6 protein (STAT6 (W123-T658))
T2 sequence (P42226 123-658): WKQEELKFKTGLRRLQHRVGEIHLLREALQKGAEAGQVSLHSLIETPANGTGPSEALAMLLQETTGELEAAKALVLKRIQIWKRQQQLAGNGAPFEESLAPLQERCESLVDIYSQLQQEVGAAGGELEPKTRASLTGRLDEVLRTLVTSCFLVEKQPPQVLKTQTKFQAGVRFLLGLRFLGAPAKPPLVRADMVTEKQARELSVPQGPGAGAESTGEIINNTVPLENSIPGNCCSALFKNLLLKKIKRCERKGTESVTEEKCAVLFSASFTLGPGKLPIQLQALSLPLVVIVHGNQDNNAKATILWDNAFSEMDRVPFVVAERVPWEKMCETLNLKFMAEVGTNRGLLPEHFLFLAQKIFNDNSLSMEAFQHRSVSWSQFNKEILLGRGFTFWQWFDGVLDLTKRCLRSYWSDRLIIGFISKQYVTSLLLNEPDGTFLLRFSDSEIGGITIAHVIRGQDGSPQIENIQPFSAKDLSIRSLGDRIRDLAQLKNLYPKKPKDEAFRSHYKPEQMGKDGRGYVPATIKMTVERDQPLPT
In words: STAT6 Fluorescence Polarization (FP) Assay. It is filed as binding. Particulars: 45-minute incubation. A digest of the protocol: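 STAT6 (W123-T658) at 250 nM was mixed with 2 nM 5-FAM-labeled phosphotyrosine peptide probe in HEPES pH 7.4 buffer with NaCl, EDTA, Tween 20 and DTT, then added to serially diluted compounds at 1% DMSO final. Polarization was read after 45 min at room temperature; IC50 came from nonlinear regression of mP versus log concentration.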
(In general: In fluorescence polarisation assays a small probe gives low polarisation when free and higher when bound to something large.)

Where [3] appears, read: STAT3 (G127-I722) 25 nM, read-out: STAT3 (FP assay IC50 class).
The mark [4] stands for this setting: STAT6 (W123-T658) 250 nM, probe 5-FAM-Ap[…]-NH2 2 nM, read-out: STAT6 (FP assay IC50 class).
[5] abbreviates: STAT3 25 nM, read-out: STAT3 (FP assay IC50).
[6] abbreviates: STAT6 250 nM, probe 5-FAM-Ap[…]-NH2 2 nM, read-out: STAT6 (FP assay IC50).
The mark [7] stands for this setting: STAT6 (W123-T658) 250 nM, probe 5-FAM-ApYKPFQDLI-NH2 2 nM, read-out: STAT6 (FP assay IC50 class).

Molecules are shown by their SMILES. pIC50: −log10 of the molar value. Like-named read-outs stand apart in the source and are kept apart here.

T1 sequence (P40763 127-722): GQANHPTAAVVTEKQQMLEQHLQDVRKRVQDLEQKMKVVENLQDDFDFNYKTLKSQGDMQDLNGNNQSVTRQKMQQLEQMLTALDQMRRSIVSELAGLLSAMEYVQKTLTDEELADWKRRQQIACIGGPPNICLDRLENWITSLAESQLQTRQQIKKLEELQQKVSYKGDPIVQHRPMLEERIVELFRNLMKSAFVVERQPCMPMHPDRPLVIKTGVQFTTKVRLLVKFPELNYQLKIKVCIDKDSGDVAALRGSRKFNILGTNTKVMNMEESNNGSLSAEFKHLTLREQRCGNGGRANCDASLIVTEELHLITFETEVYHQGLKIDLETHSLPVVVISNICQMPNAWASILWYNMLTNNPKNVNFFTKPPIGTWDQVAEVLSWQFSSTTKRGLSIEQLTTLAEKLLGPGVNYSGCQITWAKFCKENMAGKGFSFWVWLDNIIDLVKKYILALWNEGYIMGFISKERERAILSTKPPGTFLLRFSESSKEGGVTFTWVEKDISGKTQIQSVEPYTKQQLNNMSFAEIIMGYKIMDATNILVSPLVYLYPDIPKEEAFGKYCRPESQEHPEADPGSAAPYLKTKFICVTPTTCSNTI

A word on the pIC50: it is −log10 of the IC50, conventionally taken in molar units. Turning to `O=C(N[C@H]1CCC[C@H]2CC[C@@H](C(=O)N3CC(c4cncc(Cl)c4F)C3)N2C1=O)c1cc2cc(C(F)P(=O)(O)O)ccc2s1` (stereo partly drawn) [Compound 717, ((2-(((3S,6S,9aS)-3-(3-(5-chloro-4-fluoropyridin-3-yl)azetidine-1-carbonyl)-5-oxooctahydro-1H-pyrrolo[1,2-a]azepin-6-yl)carbamoyl)benzo [b]thiophen-5-yl)fluoromethyl) phosphonic acid], the negative-log IC50 (pIC50) in experiment [1] (setting [3]) was greater than 7.00; in experiment [2] (setting [4]) it was 4.52 to 5.52.

As for `CCOc1c(F)cncc1C1CN(C(=O)[C@@H]2CC[C@@H]3CCC[C@H](NC(=O)c4cc5cc([C@@H](F)P(=O)(O)O)ccc5s4)C(=O)N32)C1` [Compound 928, ((S)-(2-(((3S,6S,9aS)-3-(3-(4-ethoxy-5-fluoropyridin-3-yl)azetidine-1-carbonyl)-5-oxooctahydro-1H-pyrrolo[1,2-a]azepin-6-yl)carbamoyl)benzo [b]thiophen-5-yl)fluoromethyl) phosphonic acid], the pIC50 in experiment [1] (setting [3]) is 5.00 to 6.00; in experiment [2] (setting [4]), 4.52 to 5.52.

Regarding `CC(NC(=O)[C@@H]1CC[C@@H]2CCCC[C@H](NC(=O)c3cc4cc(C(F)(F)P(=O)(O)O)ccc4s3)C(=O)N21)c1c[nH]c2ncccc12` (stereo partly drawn) [Compound 1113, ((2-(((3S,6S,10aS)-3-((1-(1H-pyrrolo[2,3-b]pyridin-3-yl)ethyl)carbamoyl)-5-oxodecahydropyrrolo[1,2-a]azocin-6-yl)carbamoyl)benzo[b]thiophen-5-yl)difluoromethyl)phosphonic acid], the pIC50 in experiment [1] (setting [3]) is 6.00 to 7.00; in experiment [2] (setting [4]), 5.52 to 6.52.

In the case of `O=C(N[C@H]1CC[C@H]2CC[C@@H](C(=O)N3CC(C(=O)N4CCOCC4)C3)N2C1=O)c1cc2cc(C(F)(F)P(=O)(O)O)ccc2s1` [Compound 731, (difluoro(2-(((3S,6S,8aS)-3-(3-(morpholine-4-carbonyl)azetidine-1-carbonyl)-5-oxooctahydro-indolizin-6-yl)carbamoyl)benzo [b]thiophen-5-yl)methyl) phosphonic acid], the pIC50 in experiment [1] (setting [3]) was 5.00 to 6.00; in experiment [2] (setting [4]), 4.52 to 5.52.

Turning to `N#Cc1ccnc(C2CN(C(=O)[C@@H]3CC[C@@H]4CCC[C@H](NC(=O)c5cc6cc(CP(=O)(O)O)ccc6s5)C(=O)N43)C2)n1` [Compound 660, ((2-(((3S,6S,9aS)-3-(3-(4-cyanopyrimidin-2-yl)azetidine-1-carbonyl)-5-oxooctahydro-1H-pyrrolo[1,2-a]azepin-6-yl)carbamoyl)benzo [b]thiophen-5-yl)methyl) phosphonic acid], the pIC50 in experiment [1] (setting [3]) was 5.00 to 6.00; in experiment [2] (setting [4]), 4.52 to 5.52.

Regarding `CC(C)Oc1ccncc1C1CN(C(=O)[C@@H]2CC[C@@H]3CCC[C@H](NC(=O)c4cc5cc(C(F)P(=O)(O)O)ccc5s4)C(=O)N32)C1` (stereo partly drawn) [Compound 612, (fluoro(2-(((3S,6S,9aS)-3-(3-(4-isopropoxypyridin-3-yl)azetidine-1-carbonyl)-5-oxooctahydro-1H-pyrrolo[1,2-a]azepin-6-yl)carbamoyl)benzo [b]thiophen-5-yl)methyl) phosphonic acid], the values for the pIC50 in experiment [1] (setting [3]) and in experiment [2] (setting [4]) were greater than 7.00 and 4.52 to 5.52, respectively.

In the case of `O=C(N[C@H]1CCCC[C@H]2CC[C@@H](C(=O)NCc3cnc4[nH]cnc4c3)N2C1=O)c1cc2cc(C(F)(F)P(=O)(O)O)ccc2s1` [Compound 1112, ((2-(((3S,6S,10aS)-3-(((3H-imidazo[4,5-b]pyridin-6-yl)methyl)carbamoyl)-5-oxodecahydropyrrolo[1,2-a]azocin-6-yl)carbamoyl)benzo[b]thiophen-5-yl)difluoromethyl)phosphonic acid], the pIC50 in experiment [1] (setting [3]) is greater than 7.00; in experiment [2] (setting [4]) it was 5.52 to 6.52.

Take `CN(C(=O)[C@@H]1CC[C@@H]2C/C=C\C[C@H](NC(=O)c3cc4cc(C(F)(F)P(=O)(O)O)ccc4[nH]3)C(=O)N21)c1ccccc1` [Compound 30]: the pIC50 in experiment [1] (setting [5]) was 5.00 to 6.00; in experiment [2] (setting [6]) it was 5.52 to 6.52.

As for `C[C@@H]1[C@@H](c2cccnc2)CN1C(=O)[C@@H]1CC[C@@H]2CCC[C@H](NC(=O)c3cc4cc(C(F)P(=O)(O)O)ccc4s3)C(=O)N21` (stereo partly drawn) [Compound 737, (fluoro(2-(((3S,6S,9aS)-3-((2R,3S)-2-methyl-3-(pyridin-3-yl)azetidine-1-carbonyl)-5-oxooctahydro-1H-pyrrolo[1,2-a]azepin-6-yl)carbamoyl)benzo [b]thiophen-5-yl)methyl) phosphonic acid Or (fluoro(2-(((3S,6S,9aS)-3-((2S,3R)-2-methyl-3-(pyridin-3-yl)azetidine-1-carbonyl)-5-oxooctahydro-1H-pyrrolo[1,2-a]azepin-6-yl)carbamoyl)benzo [b]thiophen-5-yl)methyl) phosphonic acid], the results for the pIC50 in experiment [1] (setting [3]) and in experiment [2] (setting [7]) were greater than 7.00 and 4.52 to 5.52, respectively.

Consider `COc1c(F)cncc1C1CN(C(=O)[C@@H]2CC[C@@H]3CCC[C@H](NC(=O)c4cc5cc(C(F)P(=O)(O)O)ccc5s4)C(=O)N32)C1` (stereo partly drawn) [Compound 625, (fluoro(2-(((3S,6S,9aS)-3-(3-(5-fluoro-4-methoxypyridin-3-yl)azetidine-1-carbonyl)-5-oxooctahydro-1H-pyrrolo[1,2-a]azepin-6-yl)carbamoyl)benzo [b]thiophen-5-yl)methyl) phosphonic acid], for which the pIC50 in experiment [1] (setting [3]) is 6.00 to 7.00; in experiment [2] (setting [4]), 4.52 to 5.52.

Regarding `N#C[C@@H]1CN(C(=O)[C@@H]2CC[C@@H]3CCCC[C@H](NC(=O)c4cc5cc(C(F)(F)P(=O)(O)O)ccc5s4)C(=O)N32)C[C@H]1C1CC1` (relative stereo) [Compound 102, ((2-(((3S,6S,10aS)-3-(rel-(trans)-3-cyano-4-cyclopropyl-pyrrolidine-1-carbonyl)-5-oxodecahydropyrrolo [1,2-a]azocin-6-yl)carbamoyl)benzo[b]thiophen-5-yl)difluoromethyl) phosphonic acid], the pIC50 was 6.00 to 7.00 in experiment [1] (setting [5]) and 5.52 to 6.52 in experiment [2] (setting [6]).

Turning to `O=C(N[C@H]1CCC[C@H]2CC[C@@H](C(=O)N3CC(c4cnccc4C4OCCO4)C3)N2C1=O)c1cc2cc(CP(=O)(O)O)ccc2s1` [Compound 546, ((2-(((3S,6S,9aS)-3-(3-(4-(1,3-dioxolan-2-yl)pyridin-3-yl)azetidine-1-carbonyl)-5-oxooctahydro-1H-pyrrolo[1,2-a]azepin-6-yl)carbamoyl)benzo[b]thiophen-5-yl)methyl)phosphonic acid], the pIC50 was 5.00 to 6.00 in experiment [1] (setting [3]) and 4.52 to 5.52 in experiment [2] (setting [4]).

For the molecule `Cc1nnc([C@H]2[C@H](c3ccccc3)CN2C(=O)[C@@H]2CC[C@@H]3CCC[C@H](NC(=O)c4cc5cc(C(F)P(=O)(O)O)ccc5s4)C(=O)N32)o1` (single isomer, unassigned) [Compound 674], the pIC50 in experiment [1] (setting [3]) is 6.00 to 7.00; in experiment [2] (setting [4]) it was 4.52 to 5.52.

`O=C(N[C@H]1CCCC[C@H]2CC[C@@H](C(=O)N3CC(F)(c4ccccc4)C3)N2C1=O)c1cc2cc(C(F)(F)P(=O)(O)O)ccc2s1` [Compound 53, (difluoro(2-(((3S,6S,10aS)-3-(3-fluoro-3-phenylazetidine-1-carbonyl)-5-oxodecahydropyrrolo [1,2-a]azocin-6-yl)carbamoyl)benzo[b]thiophen-5-yl)methyl) phosphonic acid]: the pIC50 was greater than 7.00 in experiment [1] (setting [5]) and 5.52 to 6.52 in experiment [2] (setting [6]).

For the molecule `Cn1ccc([C@@H]2CN(C(=O)[C@@H]3CC[C@@H]4CCCC[C@H](NC(=O)c5cc6cc(C(F)P(=O)(O)O)ccc6s5)C(=O)N43)C[C@H]2C#N)cc1=O` (single isomer, unassigned) [Compound 228], the pIC50 is 5.00 to 6.00 in experiment [1] (setting [3]) and 5.52 to 6.52 in experiment [2] (setting [7]).

On to `O=C(N[C@H]1CCC[C@H]2CC[C@@H](C(=O)N3CC(c4cnccc4N4CCCC4=O)C3)N2C1=O)c1cc2cc(CP(=O)(O)O)ccc2s1` [Compound 850, ((2-(((3S,6S,9aS)-5-oxo-3-(3-(4-(2-oxopyrrolidin-1-yl)pyridin-3-yl)azetidine-1-carbonyl)octahydro-1H-pyrrolo[1,2-a]azepin-6-yl)carbamoyl)benzo [b]thiophen-5-yl)methyl) phosphonic acid], for which the pIC50 in experiment [1] (setting [3]) is 5.00 to 6.00; in experiment [2] (setting [4]), 4.52 to 5.52.
